According to article PMC11144398, “Crizotinib inhibits the metabolism of tramadol by non-competitive suppressing the activities of CYP2D1 and CYP3A2” (PeerJ, 2024):

How the values were obtained:
[1] = Pharmacokinetics of tramadol and O-desmethyl tramadol in SD rats with or without crizotinib; details: male, Sprague-Dawley, rat, serum, po, 20 mg/kg; for CL/F: CLz/F; for Vd/F: Vz/F; for half-life: t1/2z
Source text: Ultra-performance liquid chromatography-tandem mass spectrometry (UPLC-MS/MS) was utilized to measure the concentration of both tramadol and O-desmethyl tramadol. Separation was achieved using a Waters Acquity UPLC BEH C18 column, with dimensions of 2.1 mm × 50 mm and 1.7-µm particle size (Waters Corp., Milford, MA, USA), and quantitation was completed using a Waters XEVO TQD triple quadruple mass spectrometer. The mobile phase was composed of 0.1% formic acid (A) and ACN (B), and the gradient elution was carried out with a flow rate of 0.4 mL/min, following the procedure: 90–10% A (0–1.4 min), 10–90% A (1.4–1.5 min), and 90% A (1.5–2.0 min). Positive mode was used to detect the analytes with the following transitions: m/z 264.2 →58.0, m/z 250.2 →58.2, and m/z 285.0 →154.0 for tramadol, O-desmethyl tramadol, and diazepam (used as an internal standard, IS), respectively. The collision energy was 20 V for tramadol and O-desmethyl tramadol, and 25 V for diazepam. The standard for tramadol and O-desmethyl tramadol were dissolved in a small amount of DMSO (the concentration was 1 mg/mL) then diluted with acetonitrile (the final concentration was 1 ng/mL–1,000 ng/mL). Diazepam was diluted with methanol gradually to 500 ng/mL).
SD male rats (280 ± 15 g) were purchased from the Shanghai Animal Experimental Center. Before the experiment, the rats were kept in the animal room for two weeks with adequate water and food in order to adapt to the new environment. The room temperature was kept at 20–25 °C and the humidity was kept at 50%–65%. The change period of light and dark conditions was 12 h, which simulates the change of day and night. All animal experiments were approved by the Ethics Committee of Wenzhou Medical University (Approval number: xmsq2022-0621).
Generally speaking, only when at least five or more animals are involved in the experiment can the results be convincing. Thus, twenty SD rats were randomly divided into four groups with five animals per group: group A received a single dose of 20 mg/kg of tramadol; group B received a single dose of 45 mg/kg of crizotinib and 20 mg/kg of tramadol; group C received multiple doses of 0.5% carboxymethylcellulose sodium salt (CMC-Na) for 7 days and a single dose of 20 mg/kg of tramadol; and group D received multiple doses of 45 mg/kg of crizotinib for 7 days and a single dose of 20 mg/kg of tramadol. Prior to the experiment, all rats were fasted for 12 h but allowed free access to water. Once the experiment began, 0.5% CMC-Na and crizotinib were administered to groups C and D for 7 days, respectively, then to groups A and B on the last day of the experiment. After 30 min, all rats were orally administered 20 mg/kg of tramadol. Blood samples were collected from the tail vein at 5 min, 15 min, 30 min, 1 h, 2 h, 3 h, 4 h, 6 h, 8 h, 10 h, 12 h, and 24 h following tramadol administration. […] The samples were centrifuged at 2400 × g for 10 min to obtain serum. Each 50 µL serum was mixed with 150 µL ACN and 20 µL IS (500 ng/mL). After vortexing for 2 min and centrifugation at 16200 × g for 10 min at 4 °C, the supernatant was obtained, then we used UPLC-MS/MS analysis to detect the concentration of tramadol and O-desmethyl tramadol. After the experiment, all the animals were euthanized by 5% isoflurane inhalation anesthesia.
The Michaelis–Menten, IC50, and Lineweaver-Burk plots were generated using GraphPad Prism 6.0 software (GraphPad Software, Boston, MA, USA) with corresponding values for Km, IC50, and Ki (inhibition constant).

opioid receptors = tested on: opioid receptors; set-up: method as in earlier work; details: ref Allegaert et al., 2015, De La Gastine et al., 2022, Gillen et al., 2000, Gong et al., 2014; cited from earlier work
[2] = tested on: tramadol metabolism (O-desmethyl tramadol production) in rat liver microsomes; experiment: Liver microsomal incubation assay: inhibition of tramadol metabolism (O-desmethyl tramadol production) in RLM; type: in vitro ADME; details: rat, pH 7.4, inhibitory rate on tramadol metabolism (production of O-desmethyl tramadol)
Protocol: All the substance meet the requirements for analysis.
To obtain the Michaelis kinetic parameters of tramadol in RLM and HLM, a 200 µL incubation system was established containing 2 µL RLM or HLM (0.2 mg/mL), 186 µL 1xPBS buffer (pH = 7.4), 2 µL tramadol (10–500 µM), and 10 µL NADPH (1 mM). The mixture was pre-incubated for 5 min without NADPH in a water bath shaking at 37 °C. Then, NADPH was added to initiate the reaction, and the mixture was incubated for another 30 min. The reaction was terminated by adding 400 µL of cold ACN and 20 µL of IS (500 ng/mL).
For drug-interaction screening, 100 µM of each drug (1.6 µL) was added to the system, and added PBS to the final volume of 200 uL. Tramadol concentration was set at 60 µM according to the Km.
To determine the half-maximal inhibitory concentration (IC50), the concentration of crizotinib was set at 0.01, 0.1, 1, 10, 25, 50, and 100 µM, while the concentration of tramadol was constant at 60 µM in RLM or 100 µM in HLM (according to Km).
All data were presented as mean ± SD (standard deviation).

[3] = Group A: single oral 20 mg/kg tramadol alone
[4] = Group B: 20 mg/kg tramadol with crizotinib 45 mg/kg single dose
[5] = Group C: 0.5% CMC-Na for 7 days, then single 20 mg/kg tramadol
[6] = Group D: crizotinib 45 mg/kg for 7 days, then single 20 mg/kg tramadol

| SMILES | AUC(0-t) [1, 3] [ng·h/mL] | AUC(0-t) [1, 4] [ng·h/mL] | AUC(0-t) [1, 5] [ng·h/mL] | AUC(0-t) [1, 6] [ng·h/mL] | AUC(0-inf) [1, 3] [ng·h/mL] | AUC(0-inf) [1, 4] [ng·h/mL] | AUC(0-inf) [1, 5] [ng·h/mL] | AUC(0-inf) [1, 6] [ng·h/mL] | CL/F [1, 3] [mL/min/kg] | CL/F [1, 4] [mL/min/kg] | CL/F [1, 5] [mL/min/kg] | CL/F [1, 6] [mL/min/kg] | Cmax [1, 3] [ng/mL] | Cmax [1, 4] [ng/mL] | Cmax [1, 5] [ng/mL] | Cmax [1, 6] [ng/mL] | Tmax [1, 3] [h] | Tmax [1, 4] [h] | Tmax [1, 5] [h] | Tmax [1, 6] [h] | other results |
| --- | --- | --- | --- | --- | --- | --- | --- | --- | --- | --- | --- | --- | --- | --- | --- | --- | --- | --- | --- | --- | --- |
| COc1cccc(C2(O)CCCCC2CN(C)C)c1 (centres unmarked) [Tramadol, tramadol] | 770 ± 169 | 1120 | 777 ± 233 | 1650 | 786 ± 165 | 1220 | 790 ± 226 | 1650 | 440 | 298 | 459 | 214 | 202 ± 82.7 | 245 ± 38.3 | 246 ± 57.6 | 294 ± 85.2 | 0.5 | 0.6 ± 0.22 | 1.6 ± 0.55 | 0.9 ± 0.65 | Vd/F [1, 3]: 168 ± 88.2 L/kg; Vd/F [1, 4]: 154 ± 96.5 L/kg; Vd/F [1, 5]: 307 ± 309 L/kg; Vd/F [1, 6]: 51.4 ± 19.1 L/kg; half-life [1, 3]: 4.22 ± 1.68 h; half-life [1, 4]: 6.91 ± 5.73 h; half-life [1, 5]: 6.69 ± 5.14 h; half-life [1, 6]: 2.74 ± 0.56 h |
| CN(C)C[C@H]1CCCC[C@]1(O)c1cccc(O)c1 [O-desmethyl tramadol] | 934 ± 101 | 928 ± 145 | 1170 | 1230 | 937 ± 101 | 981 ± 125 | 1180 | 1250 | 360 | 344 | 288 | 268 | 229 ± 56.1 | 172 ± 72.1 | 292 ± 55.1 | 182 ± 65.8 | 0.8 ± 0.27 | 0.7 ± 0.27 | 1.2 ± 0.45 | 0.9 ± 0.65 | affinity relative to tramadol (opioid receptors): more than 700 times; Vd/F [1, 3]: 91.3 ± 12 L/kg; Vd/F [1, 4]: 170 ± 112 L/kg; Vd/F [1, 5]: 72.5 ± 25.4 L/kg; Vd/F [1, 6]: 94.7 ± 26.4 L/kg; half-life [1, 3]: 2.93 ± 0.09 h; half-life [1, 4]: 5.68 ± 3.69 h; half-life [1, 5]: 2.86 ± 0.71 h; half-life [1, 6]: 4.06 ± 0.91 h |
| CNC(=O)c1cc(Oc2ccc(NC(=O)Nc3ccc(Cl)c(C(F)(F)F)c3)c(F)c2)ccn1 [regorafenib] |  |  |  |  |  |  |  |  |  |  |  |  |  |  |  |  |  |  |  |  | inhibition at 30 min, 100 µM [2]: 83.7% |
| CNC(=O)c1cc(Oc2ccc(NC(=O)Nc3ccc(Cl)c(C(F)(F)F)c3)cc2)ccn1 [sorafenib] |  |  |  |  |  |  |  |  |  |  |  |  |  |  |  |  |  |  |  |  | inhibition at 30 min, 100 µM [2]: 96.7% |
